In US8546579B2, “Bicycloheteroaryl compounds as P2X7 modulators and uses thereof” (Evotec (US) Inc., priority 2006, dated 2013):

Target: T1, P2X7 receptor (Homo sapiens, UniProt Q99572)
T1 construct: host or cells: THP-1 cells differentiated with LPS and IFN-γ
T1 sequence (Q99572 1-595): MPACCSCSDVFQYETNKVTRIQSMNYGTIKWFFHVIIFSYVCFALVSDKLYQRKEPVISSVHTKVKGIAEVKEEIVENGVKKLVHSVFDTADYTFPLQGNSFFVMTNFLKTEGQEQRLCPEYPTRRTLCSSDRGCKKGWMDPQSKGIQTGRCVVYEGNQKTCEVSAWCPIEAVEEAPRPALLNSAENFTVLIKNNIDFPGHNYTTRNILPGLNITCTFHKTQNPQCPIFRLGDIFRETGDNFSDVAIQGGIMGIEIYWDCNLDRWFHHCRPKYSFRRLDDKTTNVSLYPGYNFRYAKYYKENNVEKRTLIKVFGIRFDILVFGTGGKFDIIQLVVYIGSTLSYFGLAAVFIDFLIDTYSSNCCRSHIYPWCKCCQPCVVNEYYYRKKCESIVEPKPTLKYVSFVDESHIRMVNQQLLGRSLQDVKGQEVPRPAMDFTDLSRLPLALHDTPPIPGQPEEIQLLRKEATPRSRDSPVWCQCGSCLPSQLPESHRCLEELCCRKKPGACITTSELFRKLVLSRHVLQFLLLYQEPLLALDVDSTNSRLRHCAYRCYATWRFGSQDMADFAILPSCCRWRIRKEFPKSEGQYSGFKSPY
Test: IL-1β release assay in differentiated THP-1 cells stimulated with BzATP (Example 9)
Assay type: cell-based
Design: inhibition: dose or concentration left out as unconfirmed
Conditions: THP-1; read-out: IL-1β % Inhib.
Outline: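 THP-1 cells differentiated 16 h with LPS and IFN-γ (100 ng/mL each), re-primed 2 h with LPS, then compound-pretreated 30 min before 250 uM BzATP for 45 min. Supernatant IL-1β quantified by ELISA; background-adjusted percent inhibition fitted to four-parameter logistic for IC50.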

Compound	inhibition
COc1ccc(C(=O)Nc2cccc3c(=O)n(CCN(C)C)ccc23)cc1Cl [Compound 1402]	0 to 25%
CCOc1ccc(C(=O)Nc2cccc3c(=O)n(CCN4CCOCC4)ccc23)c(O)c1 [Compound 1403]	0 to 25%
Cc1ccccc1CCC(=O)Nc1cccc2c(=O)n(CCN3CCOCC3)ccc12 [Compound 1404]	0 to 25%
COc1ccc(C(=O)Nc2cccc3c(=O)n(CC(C)(C)C)ccc23)c(C)c1 [Compound 1405]	0 to 25%
Cc1ccccc1CCC(=O)Nc1cccc2c(=O)n(Cc3cccnc3)ccc12 [Compound 1406]	0 to 25%
CCOc1cccc(C(=O)Nc2cccc3c(=O)n(Cc4cccnc4)ccc23)c1 [Compound 1407]	0 to 25%
O=C(Nc1cccc2c(=O)n(CC3CCOCC3)ccc12)c1ccc(-c2ccccc2)cc1 [Compound 1408]	0 to 25%
COc1ccccc1CC(=O)Nc1cccc2c(=O)n(CCN(C)C)ccc12 [Compound 1409]	0 to 25%
O=C(Nc1cccc2c(=O)n(CCN3CCOCC3)ccc12)c1cccc2ccccc12 [Compound 1410]	0 to 25%
O=C(Nc1cccc2c(=O)n(CCN3CCOCC3)ccc12)c1ccc2ccccc2c1 [Compound 1411]	0 to 25%
CC(C)(C)Cn1ccc2c(NC(=O)c3cc(Cl)ccc3Cl)cccc2c1=O [Compound 1412]	0 to 25%
Cc1ccccc1C(=O)Nc1cccc2c(=O)n(CC(C)(C)C)ccc12 [Compound 1413]	0 to 25%
Cc1ccc(C)c(C(=O)Nc2cccc3c(=O)n(CC(C)(C)C)ccc23)c1 [Compound 1414]	0 to 25%
CCOc1ccc(C(=O)Nc2cccc3c(=O)n(CC(C)(C)C)ccc23)cc1 [Compound 1415]	0 to 25%
CC(C)(C)Cn1ccc2c(NC(=O)c3ccc(C(C)(C)C)cc3)cccc2c1=O [Compound 1416]	0 to 25%
CC(C)(C)Cn1ccc2c(NC(=O)CCc3ccc(Cl)cc3)cccc2c1=O [Compound 1417]	26 to 50%
COc1ccc(C(=O)Nc2cccc3c(=O)n(CC(C)(C)C)ccc23)cc1C [Compound 1418]	0 to 25%
Cc1ccccc1C(=O)Nc1cccc2c(=O)n(C)ccc12 [Compound 1419]	0 to 25%
Cc1ccc(C)c(C(=O)Nc2cccc3c(=O)n(C)ccc23)c1 [Compound 1420]	0 to 25%
COc1ccc(OC)c(CC(=O)Nc2cccc3c(=O)n(C)ccc23)c1 [Compound 1422]	0 to 25%
Cc1ccc(CC(=O)Nc2cccc3c(=O)n(C)ccc23)cc1 [Compound 1423]	0 to 25%

Compound	inhibition
COc1ccc(C(=O)Nc2cccc3c(=O)n(C)ccc23)cc1C [Compound 1424]	0 to 25%
CC(C)Cc1ccc(C(=O)Nc2cccc3c(=O)n(C)ccc23)cc1 [Compound 1425]	0 to 25%
COCCn1ccc2c(NC(=O)c3ccc(C)cc3C)cccc2c1=O [Compound 1426]	0 to 25%
COCCn1ccc2c(NC(=O)c3cc(C)ccc3C)cccc2c1=O [Compound 1427]	26 to 50%
COCCn1ccc2c(NC(=O)c3cccc(C)c3)cccc2c1=O [Compound 1428]	0 to 25%
CCOc1ccc(C(=O)Nc2cccc3c(=O)n(CCOC)ccc23)cc1 [Compound 1429]	0 to 25%
COCCn1ccc2c(NC(=O)c3ccc(C(C)(C)C)cc3)cccc2c1=O [Compound 1430]	0 to 25%
COCCn1ccc2c(NC(=O)C(C)c3ccccc3)cccc2c1=O (stereo not shown) [Compound 1431]	0 to 25%
COCCn1ccc2c(NC(=O)CCc3ccccc3OC)cccc2c1=O [Compound 1432]	0 to 25%
COCCn1ccc2c(NC(=O)Cc3cccc4ccccc34)cccc2c1=O [Compound 1433]	0 to 25%
COCCn1ccc2c(NC(=O)c3ccc4ccccc4c3)cccc2c1=O [Compound 1434]	0 to 25%
COCCn1ccc2c(NC(=O)Cc3ccccc3F)cccc2c1=O [Compound 1435]	0 to 25%
COCCn1ccc2c(NC(=O)Cc3ccccc3Cl)cccc2c1=O [Compound 1436]	0 to 25%
COCCn1ccc2c(NC(=O)Cc3ccccc3OC)cccc2c1=O [Compound 1437]	0 to 25%
COCCn1ccc2c(NC(=O)Cc3ccccc3C)cccc2c1=O [Compound 1438]	26 to 50%
COCCn1ccc2c(NC(=O)Cc3cccc(OC)c3)cccc2c1=O [Compound 1439]	0 to 25%
COCCn1ccc2c(NC(=O)c3cc(C)ccc3Cl)cccc2c1=O [Compound 1440]	0 to 25%
COCCn1ccc2c(NC(=O)c3cc(Cl)ccc3C)cccc2c1=O [Compound 1441]	0 to 25%
O=C(Nc1cccc2c(=O)n(Cc3cccnc3)ccc12)c1cc(Cl)ccc1Cl [Compound 1442]	0 to 25%
O=C(Nc1cccc2c(=O)n(Cc3cccnc3)ccc12)c1cc(Cl)cc(Cl)c1 [Compound 1443]	0 to 25%
CCOc1ccc(C(=O)Nc2cccc3c(=O)n(Cc4cccnc4)ccc23)cc1 [Compound 1444]	0 to 25%

Compound	inhibition
CC(C)(C)c1ccc(C(=O)Nc2cccc3c(=O)n(Cc4cccnc4)ccc23)cc1 [Compound 1446]	0 to 25%
O=C(Nc1cccc2c(=O)n(Cc3cccnc3)ccc12)c1cccc2ccccc12 [Compound 1447]	0 to 25%
O=C(Nc1cccc2c(=O)n(Cc3cccnc3)ccc12)c1ccc2ccccc2c1 [Compound 1448]	0 to 25%
O=C(Cc1ccccc1F)Nc1cccc2c(=O)n(Cc3cccnc3)ccc12 [Compound 1449]	26 to 50%
CCOc1ccc(CC(=O)Nc2cccc3c(=O)n(Cc4cccnc4)ccc23)cc1 [Compound 1450]	0 to 25%
Cc1ccc(C(=O)Nc2cccc3c(=O)n(Cc4cccnc4)ccc23)cc1Cl [Compound 1451]	0 to 25%
Cc1cc(Cl)ccc1C(=O)Nc1cccc2c(=O)n(Cc3cccnc3)ccc12 [Compound 1452]	0 to 25%
O=C(Cc1csc2ccccc12)Nc1cccc2c(=O)n(Cc3cccnc3)ccc12 [Compound 1453]	0 to 25%
Cc1cc(C(=O)Nc2cccc3c(=O)n(Cc4cccnc4)ccc23)ccc1F [Compound 1454]	0 to 25%
O=C(CCc1ccc(Cl)cc1)Nc1cccc2c(=O)n(Cc3cccnc3)ccc12 [Compound 1455]	0 to 25%
COc1ccc(C(=O)Nc2cccc3c(=O)n(CC4CCN(C)CC4)ccc23)c(C)c1 [Compound 1456]	0 to 25%
Cc1ccccc1CCC(=O)Nc1cccc2c(=O)n(CC3CCN(C)CC3)ccc12 [Compound 1457]	0 to 25%
CN1CCC(Cn2ccc3c(NC(=O)c4ccc(-c5ccccc5)o4)cccc3c2=O)CC1 [Compound 1458]	0 to 25%
COc1cccc(CCC(=O)Nc2cccc3c(=O)n(CC4CCN(C)CC4)ccc23)c1 [Compound 1459]	26 to 50%
CN1CCC(Cn2ccc3c(NC(=O)c4ccc(Cl)cc4Cl)cccc3c2=O)CC1 [Compound 1460]	0 to 25%
Cc1cccc(C(=O)Nc2cccc3c(=O)n(CC4CCN(C)CC4)ccc23)c1C [Compound 1461]	0 to 25%
Cc1ccc(C(=O)Nc2cccc3c(=O)n(CC4CCN(C)CC4)ccc23)c(C)c1 [Compound 1462]	0 to 25%
Cc1ccc(C)c(C(=O)Nc2cccc3c(=O)n(CC4CCN(C)CC4)ccc23)c1 [Compound 1463]	0 to 25%
COc1cc(OC)cc(C(=O)Nc2cccc3c(=O)n(CC4CCN(C)CC4)ccc23)c1 [Compound 1464]	0 to 25%
